Results on 3 compounds are retold here after patent US20140323534A1, “USES OF 3'-DESFERRITHIOCIN ANALOGS” (University of Florida Research Foundation, Inc., priority 2011, published 2014).

Like-named read-outs stand apart in the source and are kept apart here.

For data set [1], the system named is acetic acid-induced colitis in rats. Put plainly: Prevention of acetic acid-induced colitis in a rat model. Format: in vivo, Sprague-Dawley rats. To be noted: FIG. 1: 20 mg/kg IV 30 minutes before the 4% acetic acid.
The nature of data set [2]: LogPapp of DFT analogs. Format: physicochemical.
Data set [3] is described as follows: Concentration of DFT analogs in rat plasma and cerebrospinal fluid after oral (PO) and subcutaneous (SC) doses. The data set is classed as in vivo, Sprague-Dawley rats. To be noted: rats, monosodium salt; for concentration at 0.5 h / concentration at 1 h / concentration at 2 h / concentration at 4 h / concentration at 8 h: male, Sprague-Dawley, rat; for concentration at 8 h / Concentration in plasma: 8 h. As to the method: The DFT analogs useful in the inventive methods were converted from the free acid form to the monosodium salt form. Water followed by one equivalent of sodium hydroxide was added to the DFT analog as a free acid. The resulting slurry was vortexed or sonicated until the DFT analog went into solution. More water was added, and the solution was vortexed or sonicated again. The formed yellow solution, having a pH about 7, was used as a sample solution in the following examples. It is preferred that a fresh sample solution of the DFT analog is made shortly before the solution is used in an assay.
Adult male Sprague-Dawley rats (450-500 g) were used. The rats were not fasted. A sample solution of a monosodium salt of (S)-3′-(HO)-DADFT-norPE (II-A) or (S)-3′-(HO)-DADFT-PE (III-A) was administered to the rats at an oral or subcutaneous dose of 300 μmol/kg. Concentrations of the DFT analogs in the plasma and cerebrospinal fluid of the rats were measured at 0.5 hour, 1 hour, 2 hours, 4 hours, and 8 hours post administration.

The mark [4] stands for this setting: cerebrospinal fluid, 300 μmol/kg SC, read-out: Concentration in cerebrospinal fluid.
Where [5] appears, read: plasma, 300 μmol/kg SC, read-out: Concentration in plasma.
[6] abbreviates: cerebrospinal fluid, 300 μmol/kg PO, read-out: Concentration in cerebrospinal fluid.
[7] abbreviates: plasma, 300 μmol/kg PO, read-out: Concentration in plasma.

As for `CC(=O)N(O)CCCCCNC(=O)CCC(=O)N(O)CCCCCNC(=O)CCC(=O)N(O)CCCCCN` [DFO, desferrioxamine], the “Effect on acetic acid-induced colitis” value in data set [1] is on record as “prevent acetic acid-induced colitis”.
The compound `COCCOCCOc1cccc(C2=N[C@@](C)(C(=O)O)CS2)c1O` [II-A] registered a LogPapp in data set [2] of −0.93. Moreover, the concentration at 0.5 h came out at 0 µM in data set [3] (cerebrospinal fluid, 300 μmol/kg SC, 0.5 h, read-out: Concentration in cerebrospinal fluid) and 77 ± 10 µM in data set [3] (plasma, 300 μmol/kg SC, 0.5 h, read-out: Concentration in plasma). Also, the concentration at 1 h was 0 µM in data set [3] (setting [4]) and 66 ± 5 µM in data set [3] (setting [5]). For the same compound, the concentration at 2 h in data set [3] (setting [4]) came out at 0 µM; in data set [3] (setting [5]), 44 ± 2 µM. The concentration at 4 h in data set [3] (setting [4]) stood at 0 µM; in data set [3] (setting [5]), 7 ± 1 µM. For the same compound, the concentration at 8 h in data set [3] (cerebrospinal fluid, 300 μmol/kg SC) amounted to 0 nM. Besides, the Concentration in plasma entry in data set [3] (300 μmol/kg SC) is given as “trace”.
In turn, `COCCOCCOCCOc1cccc(C2=N[C@@](C)(C(=O)O)CS2)c1O` [III-A] yielded a LogPapp in data set [2] of −1.22. For the same compound, in data set [3] (setting [6]), the concentration at 1 h was 0 µM, the concentration at 2 h was found to be 0 µM and the concentration at 4 h came out at 0 µM. Besides, in data set [3] (cerebrospinal fluid, 300 μmol/kg PO), the concentration at 8 h was found to be 0 nM. Besides, the concentration at 0.5 h in data set [3] (plasma, 300 μmol/kg PO, 0.5 h, read-out: Concentration in plasma) was found to be 62 ± 24 µM. In data set [3] (setting [7]), the concentration at 1 h is 46 ± 3 µM, the concentration at 2 h stood at 24 ± 5 µM and the concentration at 4 h is 13 ± 2 µM. Further, the “Concentration in cerebrospinal fluid” value in data set [3] (300 μmol/kg PO, 0.5 h) is on record as “trace”. For the same compound, the Concentration in plasma entry in data set [3] (300 μmol/kg PO) is “trace”.
